# Laboratory results from patent EP0452680A1 (priority 1990, dated 1991).
# Columns and labels:
# Herpesviren = test: General statement on antiviral activity (no specific test named); settings: qualitative statement in the description
# in vitro [1] = settings: bovine, mdbk cells
# in vitro [2] = settings: monkey, vero cells
# in vitro [3] = settings: monkey, vero cells; remark: listed apart in the source
# in vitro [4] = settings: human, hela cells
smiles,measurement,setting,value
"CC(C)OCC(COC(C)C)OCn1cnc2nc(N)ncc21 [Beispiel 6.7., 2-Amino-7-[1,3-bis(isopropoxy)-2-propoxymethyl]purin]",antivirale Aktivität gegen Herpesviren,Herpesviren,besonders hohen antiviralen Aktivität
same,MNTC,in vitro [1],> 400 µg/mL
same,MNTC,in vitro [2],> 400 µg/mL
same,MNTC,in vitro [3],> 400 µg/mL
same,MNTC,in vitro [4],> 400 µg/mL
"CC(C)OCC(CO)OCn1cnc2nc(N)ncc21 (centres unmarked) [Beispiel 6.10., 2-Amino-7-(1-hydroxy-3-isopropoxy-2-propoxymethyl)-purin]",antivirale Aktivität gegen Herpesviren,Herpesviren,besonders hohen antiviralen Aktivität
same,MNTC,in vitro [1],> 400 µg/mL
same,MNTC,in vitro [2],> 400 µg/mL
same,MNTC,in vitro [3],> 400 µg/mL
same,MNTC,in vitro [4],> 400 µg/mL
"Nc1ncc2c(ncn2COC(CO)CO)n1 [Beispiel 6.12., 2-Amino-7-(1,3-dihydroxy-2-propoxymethyl)-purin]",antivirale Aktivität gegen Herpesviren,Herpesviren,besonders hohen antiviralen Aktivität
same,MNTC,in vitro [1],> 400 µg/mL
same,MNTC,in vitro [2],133 µg/mL
same,MNTC,in vitro [3],133 µg/mL
same,MNTC,in vitro [4],44.4 µg/mL
Nc1nc2ncn(COC(CO)CO)c2c(=O)[nH]1 [reference compound],MNTC,in vitro [1],> 400 µg/mL
same,MNTC,in vitro [2],> 400 µg/mL
same,MNTC,in vitro [3],> 400 µg/mL
same,MNTC,in vitro [4],> 400 µg/mL
Nc1nc(O)c2ncn(COC(CO)CO)c2n1 [reference compound],MNTC,in vitro [1],> 133 µg/mL
same,MNTC,in vitro [2],> 400 µg/mL
same,MNTC,in vitro [3],> 400 µg/mL
same,MNTC,in vitro [4],> 400 µg/mL
